Measured values as given in ChEMBL document CHEMBL1201862, “PubChem BioAssay data set” (2004).
Blank lines part the entries; values can stand above or below the compound they belong to. The source made the active and inactive calls.

Experiments:
Mu-type opioid receptor = Mu-type opioid receptor (Homo sapiens, UniProt P35372); assay: (§1) Counterscreen for agonists of heterodimerization of the mu 1 (OPRM1) and delta 1 (OPRD1) opioid receptors: Luminescence-based cell-based high throughput dose response assay to identify agonists of OPRM1 homodimerization.; type: functional
Mu-type opioid receptor, sequence (P35372 whole entry): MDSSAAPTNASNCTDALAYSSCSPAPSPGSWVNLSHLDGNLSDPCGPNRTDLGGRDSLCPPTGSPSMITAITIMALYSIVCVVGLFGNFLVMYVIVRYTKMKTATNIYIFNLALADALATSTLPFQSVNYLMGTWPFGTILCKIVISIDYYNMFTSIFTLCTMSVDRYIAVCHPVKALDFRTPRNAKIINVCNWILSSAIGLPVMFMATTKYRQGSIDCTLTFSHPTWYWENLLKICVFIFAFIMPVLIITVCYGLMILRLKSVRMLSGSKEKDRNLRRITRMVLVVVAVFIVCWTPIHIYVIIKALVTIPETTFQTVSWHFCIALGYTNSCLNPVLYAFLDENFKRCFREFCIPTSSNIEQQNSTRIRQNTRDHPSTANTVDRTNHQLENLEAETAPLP

[1] = target: Delta-type opioid receptor (Homo sapiens, UniProt P41143); assay: as §1, with “of OPRD1” for “of OPRM1”, “homodimerization. [Related pubchem assays (depositor defined):AID504326, AID504355, AID504692, AID504904, AID504905]” for “homodimerization.”; type: functional
Delta-type opioid receptor, sequence (P41143 whole entry): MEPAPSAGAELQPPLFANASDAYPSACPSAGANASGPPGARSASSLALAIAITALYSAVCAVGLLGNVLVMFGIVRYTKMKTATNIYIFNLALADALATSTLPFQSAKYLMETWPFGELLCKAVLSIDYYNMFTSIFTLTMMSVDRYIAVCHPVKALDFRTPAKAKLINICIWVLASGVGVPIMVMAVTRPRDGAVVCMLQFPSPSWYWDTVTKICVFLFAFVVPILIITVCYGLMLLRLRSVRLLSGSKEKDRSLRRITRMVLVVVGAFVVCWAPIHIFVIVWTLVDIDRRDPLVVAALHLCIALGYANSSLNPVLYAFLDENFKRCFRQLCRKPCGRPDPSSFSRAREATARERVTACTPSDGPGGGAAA

[2] = target: 5-hydroxytryptamine receptor 5A (Homo sapiens, UniProt P47898); assay: Counterscreen for agonists of OPRM1-OPRD1 heterodimerization: luminescence-based cell-based high throughput dose response assay to identify agonists of 5-hydroxytryptamine (serotonin) 5A receptor (HTR5A). [Related pubchem assays (depositor defined):AID504326, AID504355, AID504692, AID504904, AID504905]; type: functional
5-hydroxytryptamine receptor 5A, sequence (P47898 whole entry): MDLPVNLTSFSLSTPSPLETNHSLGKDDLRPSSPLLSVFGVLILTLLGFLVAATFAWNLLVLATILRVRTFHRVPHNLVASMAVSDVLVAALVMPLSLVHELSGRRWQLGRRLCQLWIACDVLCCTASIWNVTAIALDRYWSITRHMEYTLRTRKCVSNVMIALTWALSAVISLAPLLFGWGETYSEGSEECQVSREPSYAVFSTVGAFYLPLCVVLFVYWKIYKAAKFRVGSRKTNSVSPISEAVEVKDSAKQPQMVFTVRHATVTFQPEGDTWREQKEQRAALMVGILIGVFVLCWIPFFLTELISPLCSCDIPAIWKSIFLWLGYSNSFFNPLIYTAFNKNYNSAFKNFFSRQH

[3] = target: T1, Short transient receptor potential channel 4 (Mus musculus, UniProt Q9QUQ5); assay: mouse TRPC4 channel activators, dose response, cell-based, HEK293 TRPC4/mu-opioid, Fluo-4 calcium (AID 434937); type: functional
T1 sequence (Q9QUQ5 whole entry): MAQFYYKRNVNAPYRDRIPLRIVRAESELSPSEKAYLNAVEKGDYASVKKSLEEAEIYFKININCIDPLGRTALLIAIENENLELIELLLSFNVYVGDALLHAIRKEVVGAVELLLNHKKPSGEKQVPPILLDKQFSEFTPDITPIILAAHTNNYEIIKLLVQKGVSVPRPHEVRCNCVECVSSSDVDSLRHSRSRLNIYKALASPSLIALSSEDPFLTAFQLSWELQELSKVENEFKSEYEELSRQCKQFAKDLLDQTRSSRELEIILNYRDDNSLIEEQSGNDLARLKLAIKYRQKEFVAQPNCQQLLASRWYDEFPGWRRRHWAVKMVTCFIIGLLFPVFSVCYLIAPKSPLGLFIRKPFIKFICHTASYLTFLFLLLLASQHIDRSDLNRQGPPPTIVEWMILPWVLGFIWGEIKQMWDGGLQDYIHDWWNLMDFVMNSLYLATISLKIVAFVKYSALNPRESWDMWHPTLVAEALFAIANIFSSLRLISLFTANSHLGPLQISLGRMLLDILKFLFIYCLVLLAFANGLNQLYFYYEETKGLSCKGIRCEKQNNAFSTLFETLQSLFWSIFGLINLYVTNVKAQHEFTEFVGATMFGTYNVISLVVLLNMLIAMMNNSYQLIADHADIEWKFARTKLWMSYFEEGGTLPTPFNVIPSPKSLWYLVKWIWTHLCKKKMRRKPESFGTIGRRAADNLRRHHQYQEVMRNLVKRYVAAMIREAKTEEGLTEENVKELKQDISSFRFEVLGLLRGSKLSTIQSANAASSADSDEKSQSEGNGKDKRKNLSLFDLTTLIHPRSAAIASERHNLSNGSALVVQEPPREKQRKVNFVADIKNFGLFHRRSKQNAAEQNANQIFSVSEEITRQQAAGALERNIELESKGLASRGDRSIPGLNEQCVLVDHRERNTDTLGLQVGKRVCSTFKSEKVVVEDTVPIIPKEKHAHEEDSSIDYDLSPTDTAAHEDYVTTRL

[4] = growth induction of Burl-1 ts yeast mutant, dose response, counter-screen for SUMOylation pathway inhibitor project, whole organism, S. cerevisiae, luminescence (AID 463199); type: functional
[5] = target: T1, Short transient receptor potential channel 4; assay: SAR Analysis for the identification of selective inhibits of the transient receptor potential cation channel C4 (TRPC4): Automated Electrophysiology. [Related pubchem assays (depositor defined):AID2256]; type: functional
[6] = target: T1, Short transient receptor potential channel 4; assay: mouse TRPC4 channel inhibitors, dose response, cell-based, HEK293 TRPC4/mu-opioid, Fluo-4 calcium (AID 434942); type: functional;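 note: potency of inhibitors blocking the TRPC4 calcium response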
Cytochrome P450 1A2 = target: T2, Cytochrome P450 1A2 (Homo sapiens, UniProt P05177);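 note: PubChem cytochrome P450 panel assay, CYP1A2 panel member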
T2 sequence (P05177 whole entry): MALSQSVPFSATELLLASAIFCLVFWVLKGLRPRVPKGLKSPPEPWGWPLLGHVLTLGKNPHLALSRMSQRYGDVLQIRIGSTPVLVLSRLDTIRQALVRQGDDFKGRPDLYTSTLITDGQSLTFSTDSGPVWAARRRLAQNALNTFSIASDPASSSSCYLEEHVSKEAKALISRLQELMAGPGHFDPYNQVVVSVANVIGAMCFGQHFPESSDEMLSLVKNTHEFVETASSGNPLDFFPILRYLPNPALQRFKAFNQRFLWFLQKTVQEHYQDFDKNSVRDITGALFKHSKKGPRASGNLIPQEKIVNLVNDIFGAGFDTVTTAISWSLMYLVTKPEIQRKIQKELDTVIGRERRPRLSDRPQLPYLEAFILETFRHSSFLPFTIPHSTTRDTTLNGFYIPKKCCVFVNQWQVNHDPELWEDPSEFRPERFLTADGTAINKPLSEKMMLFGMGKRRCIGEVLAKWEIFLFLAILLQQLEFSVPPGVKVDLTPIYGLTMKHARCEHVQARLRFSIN

[7] = target: FAD-linked sulfhydryl oxidase ALR (Homo sapiens, UniProt P55789); assay: inhibitors of human ALR sulfhydryl oxidase, dose response, biochemical, H2O2 detection, luminescence, cherry-pick (AID 493248)
FAD-linked sulfhydryl oxidase ALR, sequence (P55789 whole entry): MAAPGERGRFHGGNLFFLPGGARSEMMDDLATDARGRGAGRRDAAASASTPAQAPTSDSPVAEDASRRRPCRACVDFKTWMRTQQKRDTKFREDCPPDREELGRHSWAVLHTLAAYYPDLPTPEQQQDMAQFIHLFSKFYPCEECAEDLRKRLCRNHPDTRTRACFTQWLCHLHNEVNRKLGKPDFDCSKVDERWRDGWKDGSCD

Cytochrome P450 2C9 = Cytochrome P450 2C9 (Homo sapiens, UniProt P11712)
Cytochrome P450 2C9, sequence (P11712 whole entry): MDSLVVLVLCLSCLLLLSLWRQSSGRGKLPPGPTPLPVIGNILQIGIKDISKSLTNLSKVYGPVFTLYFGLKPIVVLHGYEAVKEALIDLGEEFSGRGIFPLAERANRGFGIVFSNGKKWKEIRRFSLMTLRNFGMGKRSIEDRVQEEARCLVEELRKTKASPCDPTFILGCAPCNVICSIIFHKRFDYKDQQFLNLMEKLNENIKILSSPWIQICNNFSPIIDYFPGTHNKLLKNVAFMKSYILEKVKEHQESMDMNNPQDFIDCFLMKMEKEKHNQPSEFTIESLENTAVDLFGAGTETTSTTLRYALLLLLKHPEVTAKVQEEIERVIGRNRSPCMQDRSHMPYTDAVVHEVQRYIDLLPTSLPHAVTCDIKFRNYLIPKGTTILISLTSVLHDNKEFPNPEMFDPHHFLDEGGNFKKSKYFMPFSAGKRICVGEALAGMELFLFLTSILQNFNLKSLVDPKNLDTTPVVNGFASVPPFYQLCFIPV

HEK293 = assay: cells; type: functional, cell-based; conditions: Homo sapiens
[8] = target: T3, Nuclear receptor subfamily 0 group B member 1 (Homo sapiens, UniProt P51843); assay: Luminescence-based cell-based high throughput dose response assay for inhibitors of the orphan nuclear receptor subfamily 0, group B, member 1 (DAX1; NR0B1). [Related pubchem assays (depositor defined):AID504766, AID504790]; type: functional
T3 sequence (P51843 whole entry): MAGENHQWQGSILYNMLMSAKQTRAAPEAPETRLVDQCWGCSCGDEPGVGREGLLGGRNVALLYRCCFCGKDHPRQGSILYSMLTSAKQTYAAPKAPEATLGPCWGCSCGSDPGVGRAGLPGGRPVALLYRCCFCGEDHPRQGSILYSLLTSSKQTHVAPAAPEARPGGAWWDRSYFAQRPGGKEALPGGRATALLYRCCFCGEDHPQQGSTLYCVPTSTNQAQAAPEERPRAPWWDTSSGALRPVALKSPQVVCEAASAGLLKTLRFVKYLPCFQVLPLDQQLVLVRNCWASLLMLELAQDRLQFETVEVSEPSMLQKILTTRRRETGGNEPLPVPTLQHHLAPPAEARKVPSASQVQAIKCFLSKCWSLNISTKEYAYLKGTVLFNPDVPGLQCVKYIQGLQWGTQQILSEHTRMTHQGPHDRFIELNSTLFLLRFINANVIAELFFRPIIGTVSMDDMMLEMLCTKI

[9] = target: DNA dC->dU-editing enzyme APOBEC-3A (Homo sapiens, UniProt P31941); assay: Dose Response confirmation of small molecule APOBEC3A DNA Deaminase Inhibitors via a fluorescence-based single-stranded DNA deaminase assay. [Related pubchem assays (depositor defined):AID493011, AID493024]; type: functional
DNA dC->dU-editing enzyme APOBEC-3A, sequence (P31941 whole entry): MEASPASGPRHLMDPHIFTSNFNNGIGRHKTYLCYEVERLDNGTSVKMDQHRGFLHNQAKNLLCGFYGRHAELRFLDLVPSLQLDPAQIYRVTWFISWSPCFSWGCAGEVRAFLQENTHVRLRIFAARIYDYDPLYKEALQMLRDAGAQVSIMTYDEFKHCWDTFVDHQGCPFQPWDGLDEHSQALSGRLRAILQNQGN

A-375 = assay: A375 melanoma cell viability reduction, dose response, counter-screen for MITF modulator project, cherry-pick samples, set 2 (AID 540335); type: functional, cell-based; conditions: Homo sapiens
[10] = target: T4, Microphthalmia-associated transcription factor (Homo sapiens, UniProt O75030); assay: TRPM1 promoter luciferase signal decrease, dose response, MITF inhibitor project, cell-based, SK-MEL-5, cherry-picked, set 3 (AID 493073); type: functional
T4 sequence (O75030 whole entry): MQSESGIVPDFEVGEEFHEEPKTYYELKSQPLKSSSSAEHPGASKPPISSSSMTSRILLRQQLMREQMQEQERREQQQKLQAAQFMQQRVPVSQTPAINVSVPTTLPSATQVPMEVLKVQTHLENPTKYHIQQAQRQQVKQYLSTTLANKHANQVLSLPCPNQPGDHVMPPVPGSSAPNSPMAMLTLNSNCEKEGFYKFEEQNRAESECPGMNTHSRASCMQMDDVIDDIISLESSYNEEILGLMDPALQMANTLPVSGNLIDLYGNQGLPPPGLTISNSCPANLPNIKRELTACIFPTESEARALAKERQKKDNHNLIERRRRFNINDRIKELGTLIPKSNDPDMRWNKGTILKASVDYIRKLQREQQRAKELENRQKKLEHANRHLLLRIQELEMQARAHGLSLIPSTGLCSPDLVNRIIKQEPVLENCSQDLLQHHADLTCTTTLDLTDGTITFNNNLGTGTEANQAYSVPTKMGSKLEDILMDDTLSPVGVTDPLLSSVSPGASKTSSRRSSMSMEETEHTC

[11] = target: DNA dC->dU-editing enzyme APOBEC-3G (Homo sapiens, UniProt Q9HC16); type: functional;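 note: Dose-response counterscreen measuring inhibition of APOBEC3G DNA deaminase activity, run while confirming APOBEC3A inhibitors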
DNA dC->dU-editing enzyme APOBEC-3G, sequence (Q9HC16 whole entry): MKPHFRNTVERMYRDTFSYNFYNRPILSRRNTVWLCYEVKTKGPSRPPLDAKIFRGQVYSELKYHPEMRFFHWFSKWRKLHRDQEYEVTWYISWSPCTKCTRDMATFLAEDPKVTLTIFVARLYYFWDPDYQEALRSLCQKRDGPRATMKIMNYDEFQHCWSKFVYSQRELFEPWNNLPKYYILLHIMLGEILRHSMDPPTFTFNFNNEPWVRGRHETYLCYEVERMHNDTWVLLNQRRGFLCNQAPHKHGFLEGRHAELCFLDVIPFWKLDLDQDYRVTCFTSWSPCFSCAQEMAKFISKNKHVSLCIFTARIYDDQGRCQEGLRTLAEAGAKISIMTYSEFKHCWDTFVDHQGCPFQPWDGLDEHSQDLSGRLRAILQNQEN

CAAX prenyl protease 2 = CAAX prenyl protease 2 (Homo sapiens, UniProt Q9Y256); assay: human Rce1 protease inhibitors, dose response, biochemical, yeast membranes, quenched-peptide fluorescence, cherry-pick (AID 588849)
CAAX prenyl protease 2, sequence (Q9Y256 whole entry): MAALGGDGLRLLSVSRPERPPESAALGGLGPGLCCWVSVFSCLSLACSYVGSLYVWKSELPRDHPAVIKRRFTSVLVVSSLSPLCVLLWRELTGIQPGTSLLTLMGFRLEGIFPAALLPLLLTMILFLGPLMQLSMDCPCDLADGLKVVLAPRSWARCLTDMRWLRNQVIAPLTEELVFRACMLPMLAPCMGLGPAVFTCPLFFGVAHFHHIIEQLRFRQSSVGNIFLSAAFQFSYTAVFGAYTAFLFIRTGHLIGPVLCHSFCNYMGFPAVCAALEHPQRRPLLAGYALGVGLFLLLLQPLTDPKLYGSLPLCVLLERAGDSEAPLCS

SMILES: O=C1CN(C(=O)COC(=O)COc2ccc3c(c2)CCC3)c2ccccc2N1
AC50 [4]: 48.6 µM (active)

SMILES: CC(C=NNc1ccc([N+](=O)[O-])cn1)=Cc1ccccc1
IC50 (HEK293): > 67.5 µM (inactive) | IC50 [8]: > 67.5 µM (inactive)

SMILES: CCN1CCN(c2ccc(S(=O)(=O)N3CCOCC3)cc2NC(=O)/C=C/c2ccc([N+](=O)[O-])cc2)CC1
IC50 [9]: 8.67 µM (active) | AC50 (A-375): 28.6 µM (active) | AC50 [10]: 8.13 µM (active) | IC50 [11]: 7.56 µM (active)

Other lines, results leading:

EC50 (Mu-type opioid receptor): > 92.5 µM (inactive) | EC50 [1]: 39.4 µM (inactive) | EC50 [2]: > 92.5 µM (inactive) | EC50 [3]: 1.68 µM (active)
SMILES: CC(=O)Nc1ccc(CN2CCCC(C(=O)c3cccc(C(F)(F)F)c3)C2)cc1 (configuration not stated)

IC50 [5]: 4.28 µM (active) | EC50 [6]: 0.749 µM (active) | AC50 (Cytochrome P450 1A2): 8.91 µM (inconclusive) | AC50 [7]: 4.7 µM (active) | AC50 (Cytochrome P450 2C9): 20 µM (inconclusive)
SMILES: Cn1c(-c2ccc(F)cc2)cnc1NCc1ccc(F)cc1

AC50 (CAAX prenyl protease 2): 12.1 µM (active)
SMILES: Cc1c(CCC(=O)O)c(=O)oc2cc(OCc3cccc(F)c3)ccc12
